In patent publication US7998978B2 (Pfizer Inc., priority 2006, dated 2011) one finds Ki data, which are given here for 32 compounds.

The target of this experiment is T1, JNK1α1 (Homo sapiens, UniProt P45983).
T1 construct: catalytic domain containing amino acids 1-364 and N-terminal hexahistidine tag; hexahistidine (His6) (N); made in house; host or cells: E. coli BL21 (DE3)
Description: Coupled spectrophotometric (PK/LDH) JNK1α1 assay: % inhibition and Ki determination. In kind it is biochemical. Conditions: JNK-1. As for the experimental part:
% Inhibition and Ki Determination
A coupled spectrophotometric assay, coupling JNK1α1 activity to the oxidation of β-NADH to NAD+ through the action of pyruvate kinase (PK) and lactic dehydrogenase (LDH), was used to determine the potency (percent inhibition at 1 or 10 μM or Ki) of compounds against JNK1α1 (Genbank Accession Number: L26318). […] The reaction was monitored by following the decrease in absorbance at 340 nm. The initial reaction rate was determined by the slope of the change in absorbance. To calculate percent inhibition the rate of the reaction in the presence of 1 or 10 μM compound was compared to the rate of the reaction with only DMSO multiplied by 100 percent. Note, the background rate of the above reaction in the presence of 10 μM PHA-00738186 was subtracted from all rates. […] Y=(−X+Eo−(Ki*(1+A/Km))+((X−Eo+(Ki*(1+A/Km)))^2+4*Eo*(Ki*(1+A/Km)))^0.5)*(Vm*A/(Km+A)/(2*Eo)) Formula: • Parameters: Eo, Ki, A, Km, Vo • Y is initial reaction velocity; • X is inhibitor concentration; • A is [ATP]; • Ki is inhibition constant; • Vm is Vmax; • Eo is total (initial) enzyme concentration; • Km is ATP Km;
The compounds were prepared in 100% DMSO at a 40× concentration. For percent inhibition experiments this would be 400 or 40 μM for 10 and 1 μM final concentration, respectively. For the Ki determination 3× serial dilutions were made starting at 4 mM (100 μM at 1×) in DMSO. A total of 11 concentrations were used for the analysis. The compounds were added to the reaction plate first. Next, a solution containing the HEPES, MgCl2, DTT, peptide substrate, NADH, PEP, PK/LDH enzyme, and JNK1α1—364nHis enzyme was added to the assay plate. The plate was incubated at room temperature for 15 minutes. Then the plate was warmed to 30° C. for 5 minutes. The reaction was initiated with the addition of ATP. The reaction was run in a plate reader at 30° C. for 20 minutes with absorbance readings made about every 10 seconds.
The column with “#” heading refers to compound number as exemplified in the Examples section. The column with “Ki” heading refers to Ki (in nM). The column with “% Inhibition” heading refers to percent inhibition of JNK-1 at 1 μM or 10 μM (in %) unless otherwise stated. ND refers to no data was taken.

In general, Ki refers to the equilibrium dissociation constant of an inhibitor or competing ligand from its target. Read a high Ki as lower affinity.

T1 sequence (P45983 1-364): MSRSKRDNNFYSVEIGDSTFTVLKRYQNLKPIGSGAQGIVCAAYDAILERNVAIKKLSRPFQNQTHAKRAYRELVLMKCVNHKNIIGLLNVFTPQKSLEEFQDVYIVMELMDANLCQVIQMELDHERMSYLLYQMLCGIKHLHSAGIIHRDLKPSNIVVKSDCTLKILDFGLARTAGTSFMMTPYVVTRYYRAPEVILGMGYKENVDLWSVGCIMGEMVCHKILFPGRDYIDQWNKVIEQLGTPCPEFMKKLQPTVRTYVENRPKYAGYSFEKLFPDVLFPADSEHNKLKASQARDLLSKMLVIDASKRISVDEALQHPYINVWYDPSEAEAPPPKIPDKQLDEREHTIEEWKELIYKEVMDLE

`O=C(N[C@@H]1CCC[C@H]1O)c1cccc2cnc(N[C@H]3CC[C@H](O)CC3)nc12` (relative stereo) [Example 136, 2-[(trans-4-hydroxycyclohexyl)amino]-N-[(trans)-2-hydroxycyclopentyl]quinazoline-8-carboxamide] had a Ki of 257 nM.

For `CS(=O)(=O)N[C@H]1CC[C@H](Nc2ncc3cccc(C(=O)N[C@@H]4CCC[C@H]4O)c3n2)CC1` (relative stereo) [Example 137, N-[(trans)-2-hydroxycyclopentyl]-2-({trans-4-[(methylsulfonyl)amino]cyclohexyl}amino)quinazoline-8-carboxamide], affinity was put at a Ki of 263 nM. The Ki values of the last two compounds are within 1.5-fold of each other.

`CC(=O)N[C@H]1CC[C@H](Nc2ncc3cccc(C(=O)N[C@@H]4CCC[C@H]4O)c3n2)CC1` (relative stereo) [Example 138, 2-{[trans-4-(acetylamino)cyclohexyl]amino}-N-[(trans)-2-hydroxycyclopentyl]quinazoline-8-carboxamide]: affinity was put at a Ki of 950 nM.

In turn, `O=C(N[C@@H]1COC[C@H]1O)c1cccc2cnc(N[C@H]3CC[C@H](O)CC3)nc12` (relative stereo) [Example 139, 2-[(trans-4-hydroxycyclohexyl)amino]-N-[(trans)-4-hydroxytetrahydrofuran-3-yl]quinazoline-8-carboxamide] had a Ki of 16 nM.

Compound `CC(=O)N[C@H]1CC[C@H](Nc2ncc3cccc(C(=O)N[C@@H]4COC[C@H]4O)c3n2)CC1` (relative stereo) [Example 140, 2-{[trans-4-(acetylamino)cyclohexyl]amino}-N-[(trans)-4-hydroxytetrahydrofuran-3-yl]quinazoline-8-carboxamide] showed a Ki of 52 nM.

Regarding `CN([C@H]1CC[C@H](Nc2ncc3cccc(C(=O)N[C@@H]4COC[C@H]4O)c3n2)CC1)S(C)(=O)=O` (relative stereo) [Example 141, N-[(trans)-4-hydroxytetrahydrofuran-3-yl]-2-({trans-4-[methyl(methylsulfonyl)amino]cyclohexyl}amino)quinazoline-8-carboxamide], the affinity, expressed as Ki, was 29 nM.

The compound `CN([C@H]1CC[C@H](Nc2ncc3cccc(C(=O)N[C@@H]4CCC[C@H]4O)c3n2)CC1)S(C)(=O)=O` (relative stereo) [Example 142, N-[(trans)-2-hydroxycyclopentyl]-2-({trans-4-[methyl(methylsulfonyl)amino]cyclohexyl}amino)quinazoline-8-carboxamide] gave a Ki of 226 nM.

On to `COc1ccc(CC(=O)Nc2cc3cc(-c4cn[nH]c4)ccc3cn2)cc1` [Example 1, 2-(4-methoxyphenyl)-N-[6-(1H-pyrazol-4-yl)isoquinolin-3-yl]acetamide], for which the affinity, expressed as Ki, was 76 nM.

For `COc1ccc2[nH]c(C)c(CC(=O)Nc3cc4cc(-c5cn[nH]c5)ccc4cn3)c2c1` [Example 2, 2-(5-methoxy-2-methyl-1H-indol-3-yl)-N-[6-(1H-pyrazol-4-yl)isoquinolin-3-yl]acetamide], the inhibitory constant (Ki) turned out to be 77 nM.

`COc1ccc(CC(=O)Nc2cc3cc(-c4cnn(C)c4)ccc3cn2)cc1` [Example 4, 2-(4-methoxyphenyl)-N-[6-(1-methyl-1H-pyrazol-4-yl)isoquinolin-3-yl]acetamide] came in with a Ki of 0.8 nM.

The compound `O=C(Cc1ccc2ccccc2c1)Nc1cc2cc(-c3cn[nH]c3)ccc2cn1` [Example 5, 2-(2-naphthyl)-N-[6-(1H-pyrazol-4-yl)isoquinolin-3-yl]acetamide] gave a Ki of 79 nM.

`O=C(Cc1ccccc1)Nc1cc2cc(-c3cn[nH]c3)ccc2cn1` [Example 6, 2-phenyl-N-[6-(1H-pyrazol-4-yl)isoquinolin-3-yl]acetamide] returned a Ki of 39 nM.

Compound `O=C(CC1CCOCC1)Nc1cc2cc(-c3cn[nH]c3)ccc2cn1` [Example 7, N-[6-(1H-pyrazol-4-yl)isoquinolin-3-yl]-2-(tetrahydro-2H-pyran-4-yl)acetamide] had a Ki of 20 nM.

`CC(C(=O)Nc1cc2cc(-c3cn[nH]c3)ccc2cn1)c1ccccc1` (centres unmarked) [Example 8, 2-phenyl-N-[6-(1H-pyrazol-4-yl)isoquinolin-3-yl]propanamide]: the Ki is greater than 50 nM.

`O=C(CNC(=O)c1ccccc1)Nc1cc2cc(-c3cn[nH]c3)ccc2cn1` [Example 9, N-(2-oxo-2-{[6-(1H-pyrazol-4-yl)isoquinolin-3-yl]amino)ethyl)benzamide] displayed a Ki of 17 nM.

As for `CC(=O)OCC(C)(C)CC(=O)Nc1cc2cc(-c3cn[nH]c3)ccc2cn1` [Example 10, 2,2-dimethyl-4-oxo-4-{[6-(1H-pyrazol-4-yl)isoquinolin-3-yl]amino)butyl acetate], the affinity, expressed as Ki, was 42 nM.

Take `CC(C)CC(=O)Nc1cc2cc(-c3cn[nH]c3)ccc2cn1` [Example 11, 3-methyl-N-[6-(1H-pyrazol-4-yl)isoquinolin-3-yl]butanamide]: the affinity corresponds to a Ki of 26 nM. Compared with the last compound, the Ki is about 1.6-fold lower.

The compound `O=C(CCc1cc(Cl)no1)Nc1cc2cc(-c3cn[nH]c3)ccc2cn1` [Example 12, 3-(3-chloroisoxazol-5-yl)-N-[6-(1H-pyrazol-4-yl)isoquinolin-3-yl]propanamide] yielded a Ki of 29 nM.

In turn, `O=C(CC1CCS(=O)(=O)C1)Nc1cc2cc(-c3cn[nH]c3)ccc2cn1` (centres unmarked) [Example 13, 2-(1,1-dioxidotetrahydro-3-thienyl)-N-[6-(1H-pyrazol-4-yl)isoquinolin-3-yl]acetamide] returned a Ki of 36 nM.

As for `O=C(Nc1cc2cc(-c3cn[nH]c3)ccc2cn1)C1NCc2ccccc21` (centres unmarked) [Example 14, N-[6-(1H-pyrazol-4-yl)isoquinolin-3-yl]isoindoline-1-carboxamide], the Ki was greater than 50 nM.

`CC(=O)N1CCC(C(=O)Nc2cc3cc(-c4cn[nH]c4)ccc3cn2)CC1` [Example 15, 1-acetyl-N-[6-(1H-pyrazol-4-yl)isoquinolin-3-yl]piperidine-4-carboxamide] yielded an inhibition constant (Ki) of 24 nM.

In the case of `CC(C)C(=O)Nc1cc2cc(-c3cn[nH]c3)ccc2cn1` [Example 16, 2-methyl-N-[6-(1H-pyrazol-4-yl)isoquinolin-3-yl]propanamide], the Ki came to 31 nM. This Ki and that of the compound before are within 1.5-fold of each other.

`O=C(Nc1cc2cc(-c3cn[nH]c3)ccc2cn1)c1ccccc1` [Example 17, N-[6-(1H-pyrazol-4-yl)isoquinolin-3-yl]benzamide] returned a Ki greater than 30 nM.

`O=C(CCc1cn2cccnc2n1)Nc1cc2cc(-c3cn[nH]c3)ccc2cn1` [Example 18, 3-imidazo[1,2-a]pyrimidin-2-yl-N-[6-(1H-pyrazol-4-yl)isoquinolin-3-yl]propanamide] gave a Ki of 32 nM.

In the case of `Cc1cc(C(=O)NCC(=O)Nc2cc3cc(-c4cn[nH]c4)ccc3cn2)no1` [Example 19, 5-methyl-N-(2-oxo-2-{[6-(1H-pyrazol-4-yl)isoquinolin-3-yl]amino}ethyl)isoxazole-3-carboxamide], the affinity, expressed as Ki, was 13 nM.

For `COc1ccc(CCC(=O)Nc2cc3cc(-c4cn[nH]c4)ccc3cn2)cc1` [Example 20, 3-(4-methoxyphenyl)-N-[6-(1H-pyrazol-4-yl)isoquinolin-3-yl]propanamide], the Ki came to 44 nM.

For the compound `Cc1ccc2c(c1)CCC2C(=O)Nc1cc2cc(-c3cn[nH]c3)ccc2cn1` (centres unmarked) [Example 21, 5-methyl-N-[6-(1H-pyrazol-4-yl)isoquinolin-3-yl]indane-1-carboxamide], the Ki is greater than 50 nM.

For the compound `COc1ccc2c(c1OC)CC[C@@H]2C(=O)Nc1cc2cc(-c3cn[nH]c3)ccc2cn1` [Example 22, (S)-4,5-dimethoxy-N-[6-(1H-pyrazol-4-yl)isoquinolin-3-yl]indane-1-carboxamide], the Ki was greater than 50 nM.

In turn, `COc1ccc2c(c1OC)CC[C@H]2C(=O)Nc1cc2cc(-c3cn[nH]c3)ccc2cn1` [Example 23, (R)-4,5-dimethoxy-N-[6-(1H-pyrazol-4-yl)isoquinolin-3-yl]indane-1-carboxamide] came in with an inhibitory constant (Ki) of 2 nM. This counts as single-digit nanomolar.

The compound `O=C(Cc1ccc(Oc2ccnc3ccsc23)cc1)Nc1cc2cc(-c3cn[nH]c3)ccc2cn1` [Example 24, N-[6-(1H-pyrazol-4-yl)isoquinolin-3-yl]-2-[4-(thieno[3,2-b]pyridin-7-yloxy)phenyl]acetamide] came in with a Ki of 25 nM.

As for `O=C(CN1Cc2ccccc2C1=O)Nc1cc2cc(-c3cn[nH]c3)ccc2cn1` [Example 25, 2-(1-oxo-1,3-dihydro-2H-isoindol-2-yl)-N-[6-(1H-pyrazol-4-yl)isoquinolin-3-yl]acetamide], affinity was put at a Ki of 14 nM.

On to `O=C(COc1ccc2ccccc2c1)Nc1cc2cc(-c3cn[nH]c3)ccc2cn1` [Example 26, 2-(2-naphthyloxy)-N-[6-(1H-pyrazol-4-yl)isoquinolln-3-yl]acetamide], for which the affinity corresponds to a Ki of 7 nM.
